Biological target: T1, glucocorticoid receptor (Homo sapiens, UniProt P04150)
T1 construct: endogenous in cells; ATCC cat
T1 sequence (P04150 1-777): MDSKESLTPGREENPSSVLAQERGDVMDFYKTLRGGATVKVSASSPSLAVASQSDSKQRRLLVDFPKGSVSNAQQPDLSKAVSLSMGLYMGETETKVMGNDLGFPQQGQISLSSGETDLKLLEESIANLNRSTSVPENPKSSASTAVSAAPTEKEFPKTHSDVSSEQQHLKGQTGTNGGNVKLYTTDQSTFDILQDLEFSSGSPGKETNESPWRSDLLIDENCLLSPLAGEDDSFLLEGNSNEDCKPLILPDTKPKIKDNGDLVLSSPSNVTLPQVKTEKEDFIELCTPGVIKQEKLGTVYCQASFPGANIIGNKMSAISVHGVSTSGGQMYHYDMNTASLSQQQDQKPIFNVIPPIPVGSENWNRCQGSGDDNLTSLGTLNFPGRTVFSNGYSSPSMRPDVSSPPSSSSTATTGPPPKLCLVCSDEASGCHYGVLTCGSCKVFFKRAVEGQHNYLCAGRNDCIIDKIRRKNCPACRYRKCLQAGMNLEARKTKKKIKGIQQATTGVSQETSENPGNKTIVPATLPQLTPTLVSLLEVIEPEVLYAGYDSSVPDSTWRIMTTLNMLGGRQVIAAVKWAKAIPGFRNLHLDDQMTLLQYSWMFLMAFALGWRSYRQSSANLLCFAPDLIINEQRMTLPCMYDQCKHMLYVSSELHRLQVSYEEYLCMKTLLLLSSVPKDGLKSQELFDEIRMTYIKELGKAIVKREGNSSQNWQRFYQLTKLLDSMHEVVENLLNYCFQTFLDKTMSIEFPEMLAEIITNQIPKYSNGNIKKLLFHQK
Assay: Hep G2 TAT Ki: inhibition of dexamethasone-induced TAT in HepG2 cells (96 well)
Type: cell-based
Settings: challenge of 100 nM dexamethasone, IC50 converted to Ki by Cheng and Prusoff equation
In short: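 Cells lysed 15 min at 4 °C; TAT enzyme reaction 2 h at 37 °C, stopped with KOH, 30 min further at 37 °C. Inhibition fitted to 4-parameter logistic.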

Compound | Ki [nM]
Cc1cc2c(cnn2-c2ccc(F)cc2)cc1C1CN(S(=O)(=O)c2ccn(C)n2)CCN1CC(C)C (stereo not shown) [Example 42, 1-(4-fluorophenyl)-5-(1-isobutyl-4-((1-methyl-1H-pyrazol-3-yl)sulfonyl)piperazin-2-yl)-6-methyl-1H-indazole] | 40
Cc1cc2c(cnn2-c2ccc(F)cc2)cc1C1CN(S(=O)(=O)c2cncc(F)c2)CCN1CC(C)C (stereo not shown) [Example 43, 1-(4-fluorophenyl)-5-(4-((5-fluoropyridin-3-yl)sulfonyl)-1-isobutylpiperazin-2-yl)-6-methyl-1H-indazole] | 76
Cc1cc2c(cnn2-c2ccc(F)cc2)cc1C1CN(S(=O)(=O)C2CCOCC2)CCN1CC(C)C (stereo not shown) [Example 44, 1-(4-fluorophenyl)-5-(1-isobutyl-4-((tetrahydro-2H-pyran-4-yl)sulfonyl)piperazin-2-yl)-6-methyl-1H-indazole] | 93
Cc1cc2c(cnn2-c2ccc(F)cc2)cc1C1CN(C(=O)C(C)O)CCN1CC(C)C (stereo not shown) [Example 65, 1-(3-(1-(4-fluorophenyl)-6-methyl-1H-indazol-5-yl)-4-isobutylpiperazin-1-yl)-2-hydroxypropan-1-one] | 370
CC(=O)N1CCN(CC(C)C)C(c2cc3cnn(-c4ccc(F)cc4)c3cc2C)C1 (stereo not shown) [Example 66, 1-(3-(1-(4-fluorophenyl)-6-methyl-1H-indazol-5-yl)-4-isobutylpiperazin-1-yl)ethan-1-one] | 260
Cc1cc2c(cnn2-c2ccc(F)cc2)cc1C1CN(C(=O)c2cnn(C)n2)CCN1CC(C)C (stereo not shown) [Example 67, (3-(1-(4-fluorophenyl)-6-methyl-1H-indazol-5-yl)-4-isobutylpiperazin-1-yl)(2-methyl-2H-1,2,3-triazol-4-yl)methanone] | 390
Cc1cc2c(cnn2-c2ccc(F)cc2)cc1C1CN(S(=O)(=O)c2cnn(C)n2)CCN1CCCC(F)(F)F (stereo not shown) [Example 68, 1-(4-fluorophenyl)-6-methyl-5-(4-((2-methyl-2H-1,2,3-triazol-4-yl)sulfonyl)-1-(4,4,4-trifluorobutyl)piperazin-2-yl)-1H-indazole] | 58
Cc1cc2c(cnn2-c2ccc(F)cc2)cc1C1CN(S(=O)(=O)c2cnn(C)n2)CCN1CC1(C#N)CC1 (stereo not shown) [Example 69, 1-((2-(1-(4-fluorophenyl)-6-methyl-1H-indazol-5-yl)-4-((2-methyl-2H-1,2,3-triazol-4-yl)sulfonyl)piperazin-1-yl)methyl)cyclopropane-1-carbonitrile] | 180
Cc1cc2c(cnn2-c2ccc(F)cc2)cc1C1CN(S(=O)(=O)c2cnn(C)n2)CCN1Cc1ccccn1 (stereo not shown) [Example 70, 1-(4-fluorophenyl)-6-methyl-5-(4-((2-methyl-2H-1,2,3-triazol-4-yl)sulfonyl)-1-(pyridin-2-ylmethyl)piperazin-2-yl)-1H-indazole] | 170
Cc1ccccc1CN1CCN(S(=O)(=O)c2cnn(C)n2)CC1c1cc2cnn(-c3ccc(F)cc3)c2cc1C (stereo not shown) [Example 71, 1-(4-fluorophenyl)-6-methyl-5-(4-((2-methyl-2H-1,2,3-triazol-4-yl)sulfonyl)-1-(2-methylbenzyl)piperazin-2-yl)-1H-indazole] | 160
Cc1cc2c(cnn2-c2ccc(F)cc2)cc1[C@@H]1CN(S(=O)(=O)c2cnn(C)n2)CCN1CCC(F)(F)F [Example 84, (R)-1-(4-fluorophenyl)-6-methyl-5-(4-((2-methyl-2H-1,2,3-triazol-4-yl)sulfonyl)-1-(3,3,3-trifluoropropyl)piperazin-2-yl)-1H-indazole] | 14
Cc1cc2c(cnn2-c2ccc(F)cc2)cc1C1CN(S(=O)(=O)c2cnn(C)n2)CCN1c1ccccc1 (stereo not shown) [Example 86, 1-(4-fluorophenyl)-6-methyl-5-(4-((2-methyl-2H-1,2,3-triazol-4-yl)sulfonyl)-1-phenylpiperazin-2-yl)-1H-indazole] | 180
Cc1cc2c(cnn2-c2ccc(F)cc2)cc1C1CN(S(=O)(=O)c2cnn(C)n2)CC(C)N1CC(C)C (stereo not shown) [Example 87, 1-(4-fluorophenyl)-5-(1-isobutyl-6-methyl-4-((2-methyl-2H-1,2,3-triazol-4-yl)sulfonyl)piperazin-2-yl)-6-methyl-1H-indazole] | 54
Cc1cc2c(cnn2-c2ccc(F)cc2)cc1C1C(C)N(S(=O)(=O)c2cnn(C)n2)CCN1CC(C)C (stereo not shown) [Example 88, 1-(4-fluorophenyl)-5-(1-isobutyl-3-methyl-4-((2-methyl-2H-1,2,3-triazol-4-yl)sulfonyl)piperazin-2-yl)-6-methyl-1H-indazole] | 35
Cc1cc2c(cnn2-c2ccc(F)cc2)cc1C1CN(S(=O)(=O)c2cnn(C)n2)C(C)CN1CC(C)C (stereo not shown) [Example 89, 1-(4-fluorophenyl)-5-(1-isobutyl-5-methyl-4-((2-methyl-2H-1,2,3-triazol-4-yl)sulfonyl)piperazin-2-yl)-6-methyl-1H-indazole] | 34
Cc1cc2c(cnn2-c2ccc(F)cc2)cc1C1C(=O)N(S(=O)(=O)c2cnn(C)n2)CCN1CC(C)C (stereo not shown) [Example 152, 3-(1-(4-fluorophenyl)-6-methyl-1H-indazol-5-yl)-4-isobutyl-1-((2-methyl-2H-1,2,3-triazol-4-yl)sulfonyl)piperazin-2-one] | 120
Cc1cc2c(cnn2-c2ccc(F)cc2)cc1C1CN(S(=O)(=O)c2cnn(C)n2)CC(=O)N1Cc1ccccc1 (stereo not shown) [Example 153, 1-benzyl-6-(1-(4-fluorophenyl)-6-methyl-1H-indazol-5-yl)-4-((2-methyl-2H-1,2,3-triazol-4-yl)sulfonyl)piperazin-2-one] | 380
CC(C)CN1CCN(S(=O)(=O)c2cnn(C)n2)CC1c1cc2cnn(-c3ccc(F)cc3)c2cc1F (stereo not shown) [Example 159, 6-fluoro-1-(4-fluorophenyl)-5-(1-isobutyl-4-((2-methyl-2H-1,2,3-triazol-4-yl)sulfonyl)piperazin-2-yl)-1H-indazole] | 220
Cc1cc2c(cnn2-c2ccc(F)cc2)cc1C1CN(S(=O)(=O)c2cnn(C)n2)CCN1CC(C)(C)O (stereo not shown) [Example 162, 1-(2-(1-(4-fluorophenyl)-6-methyl-1H-indazol-5-yl)-4-((2-methyl-2H-1,2,3-triazol-4-yl)sulfonyl)piperazin-1-yl)-2-methylpropan-2-ol] | 260
CC(C)CN1CCN(S(=O)(=O)c2cnn(C)n2)CC1c1cc2cnn(-c3ccc(F)cc3)c2cc1C(F)(F)F (stereo not shown) [Example 164, 1-(4-fluorophenyl)-5-(1-isobutyl-4-((2-methyl-2H-1,2,3-triazol-4-yl)sulfonyl)piperazin-2-yl)-6-(trifluoromethyl)-1H-indazole] | 170
Cc1cc2c(cnn2-c2ccc(=O)n(C)c2)cc1C1CN(S(=O)(=O)c2cnn(C)n2)CCN1CCC(F)(F)F (stereo not shown) [Example 165, 1-methyl-5-(6-methyl-5-(4-((2-methyl-2H-1,2,3-triazol-4-yl)sulfonyl)-1-(3,3,3-trifluoropropyl)piperazin-2-yl)-1H-indazol-1-yl)pyridin-2(1H)-one] | 81
Cc1cc2c(cnn2-c2cccnc2)cc1C1CN(S(=O)(=O)c2cnn(C)n2)CCN1CCC(F)(F)F (stereo not shown) [Example 167, 6-methyl-5-(4-((2-methyl-2H-1,2,3-triazol-4-yl)sulfonyl)-1-(3,3,3-trifluoropropyl)piperazin-2-yl)-1-(pyridin-3-yl)-1H-indazole] | 59
Cc1cc2c(cnn2-c2cnn(C)c2)cc1C1CN(S(=O)(=O)c2cnn(C)n2)CCN1CCC(F)(F)F (stereo not shown) [Example 168, 6-methyl-1-(1-methyl-1H-pyrazol-4-yl)-5-(4-((2-methyl-2H-1,2,3-triazol-4-yl)sulfonyl)-1-(3,3,3-trifluoropropyl)piperazin-2-yl)-1H-indazole] | 100

Biological target: T1, glucocorticoid receptor
Assay: Hep G2 TAT IC50: inhibition of dexamethasone-induced TAT in HepG2 cells (384 well)
Type: cell-based
Settings: not given
Protocol: Glucocorticoid mediated activation of TAT occurs by transactivation of glucocorticoid response elements in the TAT promoter by glucocorticoid receptor/agonist complex.
HepG2 cells were cultured using MEME media supplemented with 10% (v/v) foetal bovine serum, 2 mM L-glutamine, 1% (v/v) NEAA, and 1% (v/v) penstrep, at 37° C., 5%/95% (v/v) CO2/air.
Compounds were diluted from a 10 mM stock via an Echo Acoustic liquid handler into 10 μL assay media to generate a 10-point half-log dilution curve.
HepG2 cells were then lysed with 8 μL of cell lysis buffer containing a protease inhibitor cocktail for 15 minutes at 25° C. […] After a 2-hour incubation at 37° C. the reaction was terminated by the addition of 8 μL of 5 M aqueous potassium hydroxide solution, and the plates incubated for a further 30 minutes at 37° C.
[compound] and fitting the data to a 4-parameter logistic equation.

Compound | IC50 [nM]
Cc1cc2c(cnn2-c2ccc(F)cc2)cc1C1CN(S(=O)(=O)c2cccnn2)CCN1CCC(F)(F)F (single isomer, unassigned) [Example 176, 1-(4-fluorophenyl)-6-methyl-5-(4-pyridazin-3-ylsulfonyl-1-(3,3,3-trifluoropropyl)piperazin-2-yl)indazole] | 841
Cc1cc2c(cnn2-c2ccc(F)cc2)cc1C1CN(S(=O)(=O)N2CCOCC2)CCN1CCC(F)(F)F (single isomer, unassigned) [Example 177, 4-(3-(1-(4-fluorophenyl)-6-methyl-indazol-5-yl)-4-(3,3,3-trifluoropropyl)piperazin-1-yl)sulfonylmorpholine] | 2460

From patent US12098144B2, “Piperazine indazole glucocorticoid receptor antagonists” (Corcept Therapeutics Incorporated, priority 2021, dated 2024)
